Measurements reported in ChEMBL document CHEMBL5724914, “Linking interpersonal differences in gut microbiota composition and drug biotransformation activity” (2024).

Key:
[1] = human gut metagenome, 24 h, 2 µM
[2] = (§1) The drug is tested on WLS-370 corresponding to human gut metagenome with ENA study accession number: PRJEB37062 and ENA sample accession number: ERS12561793 for biotransformation under anaerobic condition. The drug concentrations were measured over 9 timepoints collected between 0 and 24 hours of incubation by liquid-chromatography-coupled mass spectrometry (LC–MS); conditions: 2 µM
[3] = as §1, with “Z-012” for “WLS-370”, “to” for “to human gut”, “ERS12561812” for “ERS12561793”; conditions: 2 µM
[4] = human gut metagenome, 24 h, 2 µM; remark: listed apart in the source
[5] = human gut metagenome, 24 h, 2 µM; remark: listed apart in the source
[6] = as §1, with “Z-020” for “WLS-370”, “rabbit” for “human”, “ERS12561819” for “ERS12561793”; conditions: 2 µM
[7] = as §1, with “WLS-010” for “WLS-370”, “ERS12561743” for “ERS12561793”; conditions: 2 µM
[8] = as §1, with “Z-014” for “WLS-370”, “rat” for “human”, “ERS12561814” for “ERS12561793”; conditions: 2 µM
[9] = human gut metagenome, 24 h, 2 µM; remark: listed apart in the source
[10] = human gut metagenome, 24 h, 2 µM; remark: listed apart in the source
[11] = human gut metagenome, 24 h, 2 µM; remark: listed apart in the source
[12] = human gut metagenome, 24 h, 2 µM; remark: listed apart in the source
[13] = as §1, with “WLS-220” for “WLS-370”, “ERS12561769” for “ERS12561793”; conditions: 2 µM
[14] = as §1, with “Z-025” for “WLS-370”, “rabbit” for “human”, “ERS12561824” for “ERS12561793”; conditions: 2 µM
[15] = human gut metagenome, 24 h, 2 µM; remark: listed apart in the source
[16] = as §1, with “WLS-007” for “WLS-370”, “ERS12561742” for “ERS12561793”; conditions: 2 µM
[17] = as §1, with “WLS-170” for “WLS-370”, “ERS12561762” for “ERS12561793”; conditions: 2 µM
[18] = human gut metagenome, 24 h, 2 µM; remark: listed apart in the source
[19] = as §1, with “Z-018” for “WLS-370”, “pig” for “human”, “ERS12561817” for “ERS12561793”; conditions: 2 µM
[20] = as §1, with “Z-017” for “WLS-370”, “mouse” for “human”, “ERS12561816” for “ERS12561793”; conditions: 2 µM
Further: call rule not given here.

In the case of CCS(=O)(=O)CCn1c([N+](=O)[O-])cnc1C [TINIDAZOLE], the “Bacterial Biotransformation” value [1] is reported as “Compound metabolized”, the “Bacterial Biotransformation” value [2] is reported as “Compound metabolized” and the “Bacterial Biotransformation” value [3] is reported as “Compound metabolized”. For the same molecule, the “Bacterial Biotransformation” value [4] was “Compound metabolized”, the “Bacterial Biotransformation” value [5] was “Compound metabolized” and the “Bacterial Biotransformation” value [6] was “Compound metabolized”. The “Bacterial Biotransformation” value [7] was “Compound metabolized”, the “Bacterial Biotransformation” value [8] was “Compound metabolized” and the “Bacterial Biotransformation” value [9] was “Compound metabolized”. The “Bacterial Biotransformation” value [10] was “Compound metabolized”, the “Bacterial Biotransformation” value [11] was “Compound metabolized” and the “Bacterial Biotransformation” value [12] was “Compound metabolized”. The “Bacterial Biotransformation” value [13] was “Compound metabolized”, the “Bacterial Biotransformation” value [14] was “Compound metabolized” and the “Bacterial Biotransformation” value [15] was “Compound metabolized”. The “Bacterial Biotransformation” value [16] was “Compound metabolized”, the “Bacterial Biotransformation” value [17] was “Compound metabolized” and the “Bacterial Biotransformation” value [18] was “Compound metabolized”. The “Bacterial Biotransformation” value [19] was “Compound metabolized” and the “Bacterial Biotransformation” value [20] was “Compound metabolized”.

With COc1ccc(CN2CCNCC2)c(OC)c1OC.Cl.Cl [TRIMETAZIDINE DIHYDROCHLORIDE] the “Bacterial Biotransformation” value [1] was “Compound NOT metabolized”, the “Bacterial Biotransformation” value [2] was “Compound NOT metabolized” and the “Bacterial Biotransformation” value [3] was “Compound NOT metabolized”. The “Bacterial Biotransformation” value [4] was “Compound NOT metabolized”, the “Bacterial Biotransformation” value [5] was “Compound NOT metabolized” and the “Bacterial Biotransformation” value [6] was “Compound NOT metabolized”. The “Bacterial Biotransformation” value [7] was “Compound NOT metabolized”, the “Bacterial Biotransformation” value [8] was “Compound NOT metabolized” and the “Bacterial Biotransformation” value [9] was “Compound NOT metabolized”. For the same molecule, the “Bacterial Biotransformation” value [10] was “Compound NOT metabolized”, the “Bacterial Biotransformation” value [11] was “Compound NOT metabolized” and the “Bacterial Biotransformation” value [12] was “Compound NOT metabolized”. The “Bacterial Biotransformation” value [13] was “Compound NOT metabolized”, the “Bacterial Biotransformation” value [14] was “Compound NOT metabolized” and the “Bacterial Biotransformation” value [15] was “Compound NOT metabolized”. For the same molecule, the “Bacterial Biotransformation” value [16] was “Compound NOT metabolized”, the “Bacterial Biotransformation” value [17] was “Compound NOT metabolized” and the “Bacterial Biotransformation” value [18] was “Compound NOT metabolized”. The “Bacterial Biotransformation” value [19] was “Compound NOT metabolized” and the “Bacterial Biotransformation” value [20] was “Compound NOT metabolized”.

With CN1[C@@H]2CC[C@H]1C[C@@H](OC(=O)c1c[nH]c3ccccc13)C2 [TROPISETRON] the “Bacterial Biotransformation” value [1] was “Compound NOT metabolized”, the “Bacterial Biotransformation” value [2] was “Compound NOT metabolized” and the “Bacterial Biotransformation” value [3] was “Compound NOT metabolized”. The “Bacterial Biotransformation” value [4] was “Compound NOT metabolized”, the “Bacterial Biotransformation” value [5] was “Compound NOT metabolized” and the “Bacterial Biotransformation” value [6] was “Compound NOT metabolized”. For the same molecule, the “Bacterial Biotransformation” value [7] was “Compound NOT metabolized”, the “Bacterial Biotransformation” value [8] was “Compound NOT metabolized” and the “Bacterial Biotransformation” value [9] was “Compound NOT metabolized”. For the same molecule, the “Bacterial Biotransformation” value [10] was “Compound NOT metabolized”, the “Bacterial Biotransformation” value [11] was “Compound NOT metabolized” and the “Bacterial Biotransformation” value [12] was “Compound NOT metabolized”. The “Bacterial Biotransformation” value [13] was “Compound NOT metabolized”, the “Bacterial Biotransformation” value [14] was “Compound NOT metabolized” and the “Bacterial Biotransformation” value [15] was “Compound NOT metabolized”. The “Bacterial Biotransformation” value [16] was “Compound NOT metabolized”, the “Bacterial Biotransformation” value [17] was “Compound NOT metabolized” and the “Bacterial Biotransformation” value [18] was “Compound NOT metabolized”. For the same molecule, the “Bacterial Biotransformation” value [19] was “Compound NOT metabolized” and the “Bacterial Biotransformation” value [20] was “Compound NOT metabolized”.
